# From patent US8580811B2 (Ligand Pharmaceuticals Incorporated, priority 2005, dated 2013)
# pKi: −log10 of the molar value.
# Target: T1, human AR (Homo sapiens, UniProt P10275)
# T1 construct: expressed in transfected cells; host or cells: COS-1 cells
# T1 sequence (P10275 1-920): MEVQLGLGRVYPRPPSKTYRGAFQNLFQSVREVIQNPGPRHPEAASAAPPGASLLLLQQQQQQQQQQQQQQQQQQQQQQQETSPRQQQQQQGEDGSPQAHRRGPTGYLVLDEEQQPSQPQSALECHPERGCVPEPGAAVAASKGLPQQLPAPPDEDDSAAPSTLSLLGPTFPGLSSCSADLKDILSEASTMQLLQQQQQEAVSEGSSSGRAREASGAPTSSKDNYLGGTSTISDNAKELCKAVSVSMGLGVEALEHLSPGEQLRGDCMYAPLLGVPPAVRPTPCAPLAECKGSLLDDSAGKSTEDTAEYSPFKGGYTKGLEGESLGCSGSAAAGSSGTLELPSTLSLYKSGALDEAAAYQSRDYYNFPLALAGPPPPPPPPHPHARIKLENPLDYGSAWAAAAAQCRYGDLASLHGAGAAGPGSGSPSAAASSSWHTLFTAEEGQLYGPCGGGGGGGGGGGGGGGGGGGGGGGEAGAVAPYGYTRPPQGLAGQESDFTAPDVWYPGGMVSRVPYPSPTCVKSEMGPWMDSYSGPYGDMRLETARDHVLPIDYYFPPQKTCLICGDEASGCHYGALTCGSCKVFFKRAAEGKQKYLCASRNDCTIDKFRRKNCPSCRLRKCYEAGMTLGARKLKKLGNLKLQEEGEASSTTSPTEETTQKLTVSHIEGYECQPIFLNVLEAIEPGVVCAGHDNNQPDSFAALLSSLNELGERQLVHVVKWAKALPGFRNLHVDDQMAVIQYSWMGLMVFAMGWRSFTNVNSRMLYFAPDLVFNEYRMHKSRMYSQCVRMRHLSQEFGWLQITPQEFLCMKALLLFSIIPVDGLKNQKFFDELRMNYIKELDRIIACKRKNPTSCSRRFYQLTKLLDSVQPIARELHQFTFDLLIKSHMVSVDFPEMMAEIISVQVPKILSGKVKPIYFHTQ
# Assay: IR Binding Assay: whole cell competitive binding of test compounds against 3H-DHT in COS-1 cells transfected with pRShAR
# Conditions: not given
# Outline: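 COS-1 cells transfected with pRShAR plus β-Gal reporter, serum-starved 24 h, then exposed to 1 nM ³H-DHT with compounds at 10^−10 to 10^−6 M for 3 h at 37 °C. Bound ³H-DHT counted in lysates, normalized to β-Gal. IC50 from log-logit plot; Ki via Cheng-Prusoff using Kd from Scatchard saturation analysis.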
row,Structure (SMILES),pKi
1,"Cc1c(C)n(C[C@H](O)C(F)(F)F)c2ccc3[nH]c(=O)cc(C(F)(F)F)c3c12 [Compound 245, (−)-1,2-Dimethyl-3-(3,3,3-trifluoro-2-hydroxy-propyl)-9-trifluoromethyl-3,6-dihydro-pyrrolo[3,2-f]-quinolin-7-one]",< 8.00
2,"Cc1c(-c2ccccc2F)[nH]c2ccc3[nH]c(=O)cc(Cl)c3c12 [Compound 119, 9-Chloro-2-(2-fluorophenyl)-1-methyl-3,6-dihydro-pyrrolo[3,2-f]quinolin-7-one]",> 8.30
3,"Cc1c(-c2ccccn2)n(C[C@H](O)C(F)(F)F)c2ccc3[nH]c(=O)cc(Cl)c3c12 [Compound 275, (S)-9-Chloro-1-methyl-2-(2-pyridyl)-3-(3,3,3-trifluoro-2-hydroxy-propyl)-3,6-dihydro-pyrrolo[3,2-f]quinolin-7-one]",8.00 to 8.30
4,"CC1c2c(ccc3[nH]c(=O)cc(Cl)c23)N(CCC(F)(F)F)C1C (racemic) [Compound 145, (±)-9-Chloro-1,2-dimethyl-3-(3,3,3-trifluoropropyl)-1,2,3,6-tetrahydro-pyrrolo[3,2-f]-quinolin-7-one]",> 8.30
5,"CCc1c(C)c2c3c(C(F)(F)F)cc(=O)[nH]c3ccc2n1CCCC(F)(F)F [Compound 228, 2-Ethyl-1-methyl-3-(4,4,4-trifluorobutyl)-9-trifluoromethyl-3,6-dihydro-pyrrolo[3,2-f]-quinolin-7-one]",> 8.30
6,"Cc1c(C)n(C[C@@H](O)CO)c2ccc3[nH]c(=O)cc(Cl)c3c12 [Compound 292, (R)-9-Chloro-3-(2,3-dihydroxypropyl)-1,2-dimethyl-3,6-dihydro-pyrrolo[3,2-f]-quinolin-7-one]",< 8.00
7,"Cc1c(C)n(CC(F)(F)C(F)(F)F)c2ccc3[nH]c(=O)cc(C(F)(F)F)c3c12 [Compound 219, 1,2-Dimethyl-3-(2,2,3,3,3-pentafluoropropyl)-9-trifluoromethyl-3,6-dihydro-pyrrolo[3,2-f]-quinolin-7-one]",> 8.30
8,"CC1c2c(ccc3[nH]c(=O)cc(C(F)(F)F)c23)N(CC(F)(F)Cl)C1C (racemic) [Compound 175, (±)-3-(2-Chloro-2,2-difluoroethyl)-1,2-dimethyl-9-trifluoromethyl-1,2,3,6-tetrahydro-pyrrolo[3,2-f]quinolin-7-one]",> 8.30
9,"Cc1c(C(F)(F)F)[nH]c2ccc3[nH]c(=O)cc(Cl)c3c12 [Compound 108, 9-Chloro-1-methyl-2-trifluoromethyl-3,6-dihydro-pyrrolo[3,2-f]quinolin-7-one]",> 8.30
10,"CC1c2c(ccc3[nH]c(=O)cc(C(F)(F)F)c23)N(CCC(F)(F)F)C1C (racemic) [Compound 174, (±)-1,2-Dimethyl-9-trifluoromethyl-3-(3,3,3-trifluoropropyl)-1,2,3,6-tetrahydro-pyrrolo[3,2-f]quinolin-7-one]",> 8.30
11,"Cc1c(CCCCl)c2c3c(Cl)cc(=O)[nH]c3ccc2n1CC(F)(F)C(F)(F)F [Compound 269, 9-Chloro-1-(3-chloropropyl)-2-methyl-3-(2,2,3,3,3-pentafluoropropyl)-3,6-dihydro-pyrrolo[3,2-f]quinolin-7-one]",< 8.00
12,"Cc1c[nH]c2ccc3[nH]c(=O)cc(Cl)c3c12 [Compound 114, 9-Chloro-1-methyl-3,6-dihydro-pyrrolo[3,2-f]quinolin-7-one]",< 8.00
13,"CC1c2c(ccc3[nH]c(=O)cc(C(F)(F)F)c23)N(CCCC(F)(F)F)C1C (racemic) [Compound 182, (±)-1,2-Dimethyl-3-(4,4,4-trifluorobutyl)-9-trifluoromethyl-1,2,3,6-tetrahydro-pyrrolo[3,2-f]quinolin-7-one]",> 8.30
14,"CCCc1c(C)[nH]c2ccc3[nH]c(=O)cc(Cl)c3c12 [Compound 124, 9-Chloro-2-methyl-1-propyl-3,6-dihydro-pyrrolo[3,2-f]quinolin-7-one]",< 8.00
15,"Cc1c(-c2ccncc2)n(C[C@@H](O)C(F)(F)F)c2ccc3[nH]c(=O)cc(Cl)c3c12 [Compound 283, (R)-9-Chloro-1-methyl-2-(4-pyridyl)-3-(3,3,3-trifluoro-2-hydroxy-propyl)-3,6-dihydro-pyrrolo[3,2-f]quinolin-7-one]",8.00 to 8.30
16,"Cc1c(-c2ccc(Cl)cc2)[nH]c2ccc3[nH]c(=O)cc(Cl)c3c12 [Compound 118, 9-Chloro-2-(4-chlorophenyl)-1-methyl-3,6-dihydro-pyrrolo[3,2-f]quinolin-7-one]",> 8.30
17,"O=c1cc(Cl)c2c3c(ccc2[nH]1)N(CC(F)(F)F)[C@@H]1CCC[C@H]31 [Compound 162, (+)-9-Chloro-3-(2,2,2-trifluoroethyl)-1,2-trimethylene-1,2,3,6-tetrahydropyrrolo[3,2-f]quinolin-7-one]",> 8.30
18,"CC1c2c(ccc3[nH]c(=O)cc(Cl)c23)N(CC(F)(F)C(F)(F)F)C1C (racemic) [Compound 167, (±)-9-Chloro-1,2-dimethyl-3-(2,2,3,3,3-pentafluoropropyl)-1,2,3,6-tetrahydro-pyrrolo[3,2-f]-quinolin-7-one]",> 8.30
19,"C=CCn1c(C)c(C)c2c3c(C(F)(F)F)cc(=O)[nH]c3ccc21 [Compound 236, 3-Allyl-1,2-dimethyl-9-trifluoromethyl-3,6-dihydro-pyrrolo[3,2-f]quinolin-7-one]",> 8.30
20,"CC1Nc2ccc3[nH]c(=O)cc(Cl)c3c2C1C (racemic) [Compound 140, (±)-9-Chloro-1,2-dimethyl-1,2,3,6-tetrahydro-pyrrolo[3,2-f]quinolin-7-one]",< 8.00
21,"CCc1c(C)c2c3c(Cl)cc(=O)[nH]c3ccc2n1C[C@@H](O)C(F)(F)F [Compound 281, (R)-9-Chloro-2-ethyl-1-methyl-3-(3,3,3-trifluoro-2-hydroxy-propyl)-3,6-dihydro-pyrrolo[3,2-f]quinolin-7-one]",> 8.30
22,"O=c1cc(Cl)c2c(ccc3[nH]c4c(c32)CCC4)[nH]1 [Compound 107, 9-Chloro-1,2-trimethylene-3,6-dihydro-pyrrolo[3,2-f]quinolin-7-one]",< 8.00
23,"CCc1c(-c2ccccc2)n(CC(F)(F)F)c2ccc3[nH]c(=O)cc(Cl)c3c12 [Compound 203, 9-Chloro-1-ethyl-2-phenyl-3-(2,2,2-trifluoroethyl)-3,6-dihydro-pyrrolo[3,2-f]quinolin-7-one]",> 8.30
24,"Cc1ccc(-c2c(C)c3c4c(Cl)cc(=O)[nH]c4ccc3n2C[C@@H](O)C(F)(F)F)o1 [Compound 284, (R)-9-Chloro-1-methyl-2-(5-methylfuran-2-yl)-3-(3,3,3-trifluoro-2-hydroxy-propyl)-3,6-dihydro-pyrrolo[3,2-f]quinolin-7-one]",> 8.30
25,"Cc1c(C)n(C[C@H](O)CO)c2ccc3[nH]c(=O)cc(Cl)c3c12 [Compound 291, (S)-9-Chloro-3-(2,3-dihydroxypropyl)-1,2-dimethyl-3,6-dihydro-pyrrolo[3,2-f]-quinolin-7-one]",< 8.00
26,CCc1c(C)c2c3c(C(F)(F)F)cc(=O)[nH]c3ccc2n1CCCO [Compound 286],> 8.30

# Same assay, conditions: competition with 1 nM 3H-DHT, transfected COS-1 cells, 3 h at 37° C., Cheng-Prusoff from IC50; read-out: Ki
row,Structure (SMILES),pKi
1,"Cc1c(-c2ccncc2)n(CC(F)(F)F)c2ccc3[nH]c(=O)cc(Cl)c3c12 [Compound 254, 9-Chloro-1-methyl-2-(4-pyridyl)-3-(2,2,2-trifluoroethyl)-3,6-dihydro-pyrrolo[3,2-f]-quinolin-7-one]",< 8.00
2,"CC(=O)c1[nH]c2ccc3[nH]c(=O)cc(Cl)c3c2c1C [Compound 121, 2-Acetyl-9-chloro-1-methyl-3,6-dihydro-pyrrolo[3,2-f]quinolin-7-one]",< 8.00
